Patent US20150030593A1, “COMPOSITIONS OF PENETRATION-ENHANCED TARGETING PROTEINS AND METHODS OF USE” (PERMEON BIOLOGICS, INC., priority 2013, published 2015)

Assays:
Type in all cases: cell-based
[1] = system: MDA-MB-468 (Her2^Low) cells; assay: Flow cytometry detection of internalized GFP protein (Example 4); conditions: 1 μM, 2 hours, serum free media
Procedure: These two types of cells express different levels of Her2 protein (FIG. 8). […] MDA-MB-468 cells express very low levels of Her2 (referred to as Her2^Low) while AU565 cells express high levels of Her2 (referred to as Her2^high).
The media were replaced with serum free media containing 1 μM of a protein listed below, and incubated for 2 hours. Cells were washed 3×PBS, trypsinized, fixed with 4% PFA, washed with PBS and then analyzed by flow cytometry with detection of GFP.
Results: Flow cytometry analysis is indicative of the amount of protein internalized into the cells. FIGS. 9A and 9B show the flow cytometry data obtained for different tested samples at various conditions. The median fluorescence values obtained from the flow cytometry peak minus the median fluorescence values of untreated cells (background fluorescence) are shown in FIGS. 10A and 10B. See also Table 7. The first column indicates identifies the GFP-component of the construct used for the particular sample treatment. The second and third columns represents fluorescence in MDA-MB-468 cells following treatment with each of the GFP proteins alone (second column; examples of use of CPMs alone) or with each of the GFP-C6.5 fusion proteins (third column; examples of fusion proteins comprising a target-binding region and a CPM region). The fourth and fifth column fluorescence in AU565 cells following treatment with each of the GFP proteins alone (fourth column; examples of use of CPMs alone) or with each of the GFP-C6.5 fusion proteins (fifth column; examples of fusion proteins comprising a target-binding region and a CPM region).

AU565 (Her2^high) cells [2] = assay: as above; conditions: 1 μM, 2 hours, serum free media
AU565 (Her2^high) cells [3] = assay: Flow cytometry uptake in mixed cell population, concentration series (Example 5); conditions: 2 h, first set
Procedure: (§1) The media were replaced with serum free media containing indicated concentrations of protein listed below and incubated for 2 h. Cells were washed 3×PBS, trypsinized, fixed with 4% PFA, stained with Her2 Ab-APC for 0.5 hour, washed with PBS and then analyzed by flow cytometry with detection of GFP.
(§2) The tested proteins of the first and second sets of experiments were applied to the mixed cell population for two hours.
(§3) The above data were also plotted in FIGS. 13A-13H to show the median fluorescence value minus background fluorescence of untreated cells (background adjusted fluorescence) (Y-axis) as a function of concentration (X-axis) for each of the tested proteins in this Example. Cellular uptake of the proteins was measured by GFP fluorescence. Her2 expression level was measured by using a Her2 antibody conjugated with allophycocyanin (APC). Gating was applied to the flow cytometry data to identify Her2^1′ versus Her2^high populations. […] The Her2^low profiles (diamond) are indicative of the profile of charged GFP alone. The Her2^high profiles (square) are indicative of the profile of the charged GFP in combination with the target-binding region—C6.5 scFv. The data of sfGFP-C6.5 on the Her2^high cells reflects the profile of the target-binding region (C6.5) by itself.

[4] = system: MDA-MB-468 (Her2^Low) cells; assay: as above; conditions: 2 h; for Median Fluorescence Values, MDA-MB-468 cells (Her2−) GFP-C6.5 / Median Fluorescence Values, MDA-MB-468 cells (Her2−) C6.5-GFP: first set; for Median Fluorescence Values, Her2− GFP-C6.5: second set
Procedure: as §1, §2, §3

AU565 (Her2^high) cells [5] = assay: Flow cytometry uptake in mixed cell population, time course (Example 6); conditions: 0.1 μM
Procedure: (§4) The media were replaced with serum free media containing 0.1 μM of protein listed below and incubated for 10 minutes, 30 minutes or 4 hours. Cells were washed 3×PBS, trypsinized, stained with Her2 Antibody-APC for 0.5 hours, washed with PBS and then analyzed by flow cytometry with detection of GFP.

[6] = system: MDA-MB-468 (Her2^Low) cells; assay: as above; conditions: 0.1 μM
Procedure: as §4

SKOV-3 cells (Her2^high) = assay: Cellular uptake by fluorescence microscopy; conditions: 1 μM, 1 hour
Procedure: These images were taken to assess cellular uptake of these GFP-containing proteins by fluorescence microscopy. The images shown are an overlay of phase contrast and GFP fluorescence images.
In addition, SKOV-3 cells (Her2^high) were treated with 1 μM of proteins for 1 hour, and then images were taken to assess cellular uptake of GFP proteins by fluorescence microscopy (FIG. 11A).

+15GFP-C6.5: fusion of +15GFP, (S4G)6 spacer, C6.5 scFv, His6
median fluorescence values, MDA-MB-468 (Her2^Low) GFP-C6.5 [1]: 313,629 | median fluorescence values, AU565 (Her2^high) GFP-C6.5 (AU565 (Her2^high) cells [2]): 413,838 | Median Fluorescence Values, AUS65 cells (Her2+) GFP-C6.5 (AU565 (Her2^high) cells [3]; 0.03 uM): 37,663 | Median Fluorescence Values, AUS65 cells (Her2+) GFP-C6.5 (AU565 (Her2^high) cells [3]; 0.1 uM): 74,673 | Median Fluorescence Values, AUS65 cells (Her2+) GFP-C6.5 (AU565 (Her2^high) cells [3]; 0.3 uM): 128,374 | Median Fluorescence Values, AUS65 cells (Her2+) GFP-C6.5 (AU565 (Her2^high) cells [3]; 1 uM): 180,065 | Median Fluorescence Values, MDA-MB-468 cells (Her2−) GFP-C6.5 ([4]; 0.03 uM): 13,012 | Median Fluorescence Values, MDA-MB-468 cells (Her2−) GFP-C6.5 ([4]; 0.1 uM): 36,343 | Median Fluorescence Values, MDA-MB-468 cells (Her2−) GFP-C6.5 ([4]; 0.3 uM): 76,116 | Median Fluorescence Values, MDA-MB-468 cells (Her2−) GFP-C6.5 ([4]; 1 uM): 155,734 | cellular uptake (flow cytometry with detection of GFP), Her2+ GFP-C6.5 (AU565 (Her2^high) cells [5]; 10 min): 18,606 | cellular uptake (flow cytometry with detection of GFP), Her2+ GFP-C6.5 (AU565 (Her2^high) cells [5]; 30 min): 35,981 | cellular uptake (flow cytometry with detection of GFP), Her2+ GFP-C6.5 (AU565 (Her2^high) cells [5]; 4 h): 148,261 | cellular uptake (flow cytometry with detection of GFP), Her2− GFP-C6.5 ([6]; 10 min): 10,665 | cellular uptake (flow cytometry with detection of GFP), Her2− GFP-C6.5 ([6]; 30 min): 22,262 | cellular uptake (flow cytometry with detection of GFP), Her2− GFP-C6.5 ([6]; 4 h): 144,923

sfGFP-C6.5: fusion of superfolder GFP, (S4G)6 spacer, C6.5 anti-Her2 scFv, His6
median fluorescence values, MDA-MB-468 (Her2^Low) GFP-C6.5 [1]: 5,632 | Median Fluorescence Values, Her2− GFP-C6.5 ([4]; 0.03 uM): 4,460 | Median Fluorescence Values, Her2− GFP-C6.5 ([4]; 0.1 uM): 4,824 | Median Fluorescence Values, Her2− GFP-C6.5 ([4]; 0.3 uM): 4,947 | cellular uptake (flow cytometry with detection of GFP), Her2− GFP-C6.5 ([6]; 10 min): 4,081 | cellular uptake (flow cytometry with detection of GFP), Her2− GFP-C6.5 ([6]; 30 min): 3,986 | cellular uptake (flow cytometry with detection of GFP), Her2− GFP-C6.5 ([6]; 4 h): 4,704

C6.5-+15GFP: fusion of N-terminal C6.5 scFv, (S4G)6 spacer, +15GFP, His6
median fluorescence values, MDA-MB-468 (Her2^Low) GFP-C6.5 [1]: 767,627 | median fluorescence values, AU565 (Her2^high) GFP-C6.5 (AU565 (Her2^high) cells [2]): 2,170,916 | cellular uptake by fluorescence microscopy (SKOV-3 cells (Her2^high)): internalized efficiently in the cells | Median Fluorescence Values, AUS65 cells (Her2+) C6.5-GFP (AU565 (Her2^high) cells [3]; 0.03 uM): 75,821 | Median Fluorescence Values, AUS65 cells (Her2+) C6.5-GFP (AU565 (Her2^high) cells [3]; 0.1 uM): 162,337 | Median Fluorescence Values, AUS65 cells (Her2+) C6.5-GFP (AU565 (Her2^high) cells [3]; 0.3 uM): 305,944 | Median Fluorescence Values, AUS65 cells (Her2+) C6.5-GFP (AU565 (Her2^high) cells [3]; 1 uM): 822,351 | Median Fluorescence Values, MDA-MB-468 cells (Her2−) C6.5-GFP ([4]; 0.03 uM): 13,355 | Median Fluorescence Values, MDA-MB-468 cells (Her2−) C6.5-GFP ([4]; 0.1 uM): 36,070 | Median Fluorescence Values, MDA-MB-468 cells (Her2−) C6.5-GFP ([4]; 0.3 uM): 82,571 | Median Fluorescence Values, MDA-MB-468 cells (Her2−) C6.5-GFP ([4]; 1 uM): 306,260 | cellular uptake (flow cytometry with detection of GFP), Her2+ C6.5-GFP (AU565 (Her2^high) cells [5]; 10 min): 37,044 | cellular uptake (flow cytometry with detection of GFP), Her2+ C6.5-GFP (AU565 (Her2^high) cells [5]; 30 min): 61,007 | cellular uptake (flow cytometry with detection of GFP), Her2+ C6.5-GFP (AU565 (Her2^high) cells [5]; 4 h): 184,844 | cellular uptake (flow cytometry with detection of GFP), Her2− C6.5-GFP ([6]; 10 min): 13,517 | cellular uptake (flow cytometry with detection of GFP), Her2− C6.5-GFP ([6]; 30 min): 17,194 | cellular uptake (flow cytometry with detection of GFP), Her2− C6.5-GFP ([6]; 4 h): 96,599

B1: +2GFP-C6.5: +2GFP fused to C6.5 scFv; variant a or b not stated (protein)
scFv: QVQLLQSGAELKKPGESLKISCKGSGYSFTSYWIAWVRQMPGKGLEYMGLIYPGDSDTKYSPSFQGQVTISVDKSVSTAYLQWSSLKPSDSAVYFCARHDVGYCSSSNCAKWPEYFQHWGQGTLVTVSSGGGGSGGGGSGGGGSQSVLTQPPSVSAAPGQKVTISCSGSSSNIGNNYVSWYQQLPGTAPKLLIYGHTNRPAGVPDRFSGSKSGTSASLAISGFRSEDEADYYCAAWDDSLSGWVFGGGTKLTVLGGHGHHHHHH
modifications: left off: large carriers; small tags and cut ends
cellular uptake by fluorescence microscopy (SKOV-3 cells (Her2^high)): bound to SKOV-3 cells through Her2 but did not internalize in the cells
